# Target: T1, hAhR (Homo sapiens, UniProt P35869)
# T1 construct: Stably integrated DRE-luciferase cell lines were generated by transducing the both cell lines with Cignal XRE luciferase reporter (Qiagen) lentiviral particles; endogenous in cells
# T1 sequence (P35869 11-848): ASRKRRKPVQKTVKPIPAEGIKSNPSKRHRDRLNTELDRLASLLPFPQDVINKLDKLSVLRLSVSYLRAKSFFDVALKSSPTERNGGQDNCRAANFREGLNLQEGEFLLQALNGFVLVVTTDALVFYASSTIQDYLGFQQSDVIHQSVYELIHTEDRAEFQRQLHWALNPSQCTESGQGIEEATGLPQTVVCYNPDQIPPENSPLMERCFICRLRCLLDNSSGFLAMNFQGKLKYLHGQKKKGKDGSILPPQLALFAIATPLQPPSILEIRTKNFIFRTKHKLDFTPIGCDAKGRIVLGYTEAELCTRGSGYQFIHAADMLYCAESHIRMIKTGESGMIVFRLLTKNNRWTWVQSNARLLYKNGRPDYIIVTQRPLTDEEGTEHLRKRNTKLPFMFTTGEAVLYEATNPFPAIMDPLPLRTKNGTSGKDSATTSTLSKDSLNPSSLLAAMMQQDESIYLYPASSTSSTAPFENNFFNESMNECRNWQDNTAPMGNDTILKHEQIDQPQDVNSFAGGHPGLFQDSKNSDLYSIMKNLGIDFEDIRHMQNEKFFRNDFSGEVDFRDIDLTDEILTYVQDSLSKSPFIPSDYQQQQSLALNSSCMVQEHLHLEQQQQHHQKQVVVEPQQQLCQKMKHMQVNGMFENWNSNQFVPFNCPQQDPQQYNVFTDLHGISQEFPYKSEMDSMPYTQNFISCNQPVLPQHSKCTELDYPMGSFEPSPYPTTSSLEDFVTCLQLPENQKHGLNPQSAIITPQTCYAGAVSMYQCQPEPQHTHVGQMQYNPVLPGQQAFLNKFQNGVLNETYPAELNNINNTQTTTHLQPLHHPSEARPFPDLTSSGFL
# Assay: AhR DRE-luciferase reporter transcriptional assay, antagonist mode (TCDD-induced)
# Format: cell-based
# Settings: HEPG2 DRE-Luc cells, 3 nM TCDD, 24 hour incubation, relative IC50
# Outline: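 HepG2 cells carrying a stably integrated DRE-luciferase reporter, in OptiMEM with 0.5% FBS; semi-log compound doses added with 3 nM TCDD, 24 h incubation, firefly luciferase read-out. Percent maximal activity normalised between vehicle ± TCDD; relative IC50 taken as half-reduction between curve plateaus.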
row,Compound,IC50
1,"Cc1c(-c2ncc3nc(C(F)(F)F)ccc3n2)ccc(N(C)C(=O)c2ccnn2C)c1C [Example 191, N-(2,3-dimethyl-4-(6-(trifluoromethyl)pyrido[3,2-d]pyrimidin-2-yl)phenyl)-N,1-dimethyl-1H-pyrazole-5-carboxamide]",1000 to 10000 nM
2,"Cc1cc(-c2ccc3ncn(C)c3c2)ccc1NC(=O)c1ccnn1C [Example 089, 1-Methyl-N-(2-methyl-4-(1-methyl-1H-benzo[d]imidazol-6-yl)phenyl)-1H-pyrazole-5-carboxamide]",1000 to 10000 nM
3,"Cc1ccc2nc(-c3ccc(NC(=O)c4ccnn4C)c(C)c3)ccc2c1 [Example 079, 1-methyl-N-(2-methyl-4-(6-methylquinolin-2-yl)phenyl)-1H-pyrazole-5-carboxamide]",500 to 1000 nM
4,"Cc1cc(-c2ccc3cc(F)ccc3n2)ccc1NC(=O)c1ccccc1 [Example 023, N-(4-(6-fluoroquinolin-2-yl)-2-methylphenyl)benzamide]",500 to 1000 nM
5,"Cc1cc(-c2ccc3cnccc3n2)ccc1NC(=O)c1ccnn1C [Example 013, 1-methyl-N-(2-methyl-4-(1,6-naphthyridin-2-yl)phenyl)-1H-pyrazole-5-carboxamide]",1000 to 10000 nM
6,"Cc1cc(-c2ccc3cc(F)ccc3n2)ccc1NC(=O)c1cccnc1 [Example 027, N-(4-(6-fluoroquinolin-2-yl)-2-methylphenyl)nicotinamide]",500 to 1000 nM
7,"Cc1cc(-c2ncc3nc(C(F)(F)F)cc(C)c3n2)ccc1N(C)C(=O)c1ccnn1CCOP(=O)(O)O [Example 194, 2-[5-[methyl([2-methyl-4-[8-methyl-6-(trifluoromethyl)pyrido[3,2-d]pyrimidin-2-yl]phenyl])carbamoyl]-1H-pyrazol-1-yl]ethyl disodium phosphate]",1000 to 10000 nM
8,"Cc1c(NC(=O)c2ccnn2C)ccc(-c2ncc3nc(C(F)(F)F)ccc3n2)c1C [Example 190, N-(2,3-dimethyl-4-(6-(trifluoromethyl)pyrido[3,2-d]pyrimidin-2-yl)phenyl)-1-methyl-1H-pyrazole-5-carboxamide]",1000 to 10000 nM
9,"Cc1cc(-c2ncc3cc(C(F)(F)F)ccc3n2)ccc1N(C)C(=O)c1ccnn1Cc1nnn[nH]1 [Example 158, 1-((1H-tetrazol-5-yl)methyl)-N-methyl-N-(2-methyl-4-(6-(trifluoromethyl)-quinazolin-2-yl)phenyl)-1H-pyrazole-5-carboxamide]",1000 to 10000 nM
10,"Cc1cc(-c2ccc3cc(C(N)=O)ccc3n2)ccc1NC(=O)c1ccnn1C [Example 074, 2-(3-methyl-4-(1-methyl-1H-pyrazole-5-carboxamido)phenyl)quinoline-6-carboxamide]",1000 to 10000 nM
11,"Cc1cc(-c2ccc3cc(C4CC4)ccc3n2)ccc1NC(=O)c1ccnn1C [Example 068, N-(4-(6-cyclopropylquinolin-2-yl)-2-methylphenyl)-1-methyl-1H-pyrazole-5-carboxamide]",1000 to 10000 nM
12,"Cc1cc(-c2ccc3cc(F)ccc3n2)ccc1NC(=O)N1CCOCC1 [Example 041, N-(4-(6-fluoroquinolin-2-yl)-2-methylphenyl)morpholine-4-carboxamide]",1000 to 10000 nM
13,"Cc1cc(-c2cc(C)c3ccccc3n2)ccc1NC(=O)OC(C)(C)C [Example 015, tert-butyl (2-methyl-4-(4-methylquinolin-2-yl)phenyl)carbamate]",1000 to 10000 nM
14,"Cc1cc(-c2ccc3ccccc3n2)ccc1NC(=O)c1ccnn1C [Example 070, 1-methyl-N-(2-methyl-4-(quinolin-2-yl)phenyl)-1H-pyrazole-5-carboxamide]",500 to 1000 nM
15,"Cc1cc(-c2ccc3ccn(C)c3c2)ccc1NC(=O)c1ccnn1C [Example 082, 1-Methyl-N-(2-methyl-4-(1-methyl-1H-indol-6-yl)phenyl)-1H-pyrazole-5-carboxamide]",500 to 1000 nM

# Continued, values first:
row,IC50,Compound
1,200 to 500 nM,"Cc1cc(C(=O)N(C)c2ccc(-c3ncc4nc(OC(F)(F)F)cc(C)c4n3)cc2C)ccn1 [Example 161, N,2-dimethyl-N-(2-methyl-4-(8-methyl-6-(trifluoromethoxy)pyrido[3,2-d]pyrimidin-2-yl)phenyl)isonicotinamide]"
2,200 to 500 nM,"Cc1cc(-c2nc3cc(C(F)(F)F)ccc3s2)ccc1NC(=O)c1ccnn1C [Example 100, 1-methyl-N-(2-methyl-4-(5-(trifluoromethyl)benzo[d]thiazol-2-yl)phenyl)-1H-pyrazole-5-carboxamide]"
3,200 to 500 nM,"COC(=O)Nc1ccc(-c2ccc3cc(F)ccc3n2)cc1C [Example 024, methyl (4-(6-fluoroquinolin-2-yl)-2-methylphenyl)carbamate]"
4,200 to 500 nM,"Cc1cc(-c2ccc3cc(C(F)(F)F)ccc3n2)ccc1NC(=O)c1ccnn1C [Example 001, 1-methyl-N-(2-methyl-4-(6-(trifluoromethyl)quinolin-2-yl)phenyl)-1H-pyrazole-5-carboxamide]"
5,< 200 nM,"Cc1cc(-c2ccc3cc(C(F)(F)F)ccc3n2)cc(F)c1N(C)C(=O)c1ccnn1C [Example 007, N-(2-fluoro-6-methyl-4-(6-(trifluoromethyl)quinolin-2-yl)phenyl)-N,1-dimethyl-1H-pyrazole-5-carboxamide]"
6,< 200 nM,"Cc1cc(-c2ccc3nc(C(F)(F)F)cc(C)c3n2)ccc1N(C)C(=O)c1ccnn1C [Example 106, N,1-dimethyl-N-(2-methyl-4-(8-methyl-6-(trifluoromethyl)-1,5-naphthyridin-2-yl)phenyl)-1H-pyrazole-5-carboxamide]"
7,< 200 nM,"Cc1cc(-c2ncc3cc(C(F)(F)F)ccc3n2)ccc1N1CCNC1=O [Example 141, 1-(2-methyl-4-(6-(trifluoromethyl)quinazolin-2-yl)phenyl)imidazolidin-2-one]"
8,< 200 nM,"Cc1cc(C(F)(F)F)nc2cnc(-c3ccc(N(C)C(=O)c4ccnn4C)c(F)c3)nc12 [Example 162, N-(2-fluoro-4-(8-methyl-6-(trifluoromethyl)pyrido[3,2-d]pyrimidin-2-yl)-phenyl)-N,1-dimethyl-1H-pyrazole-5-carboxamide]"
9,< 200 nM,"Cc1cc(-c2ncc3nc(C(F)(F)F)cc(C)c3n2)ccc1NC(=O)c1ccnc(C(N)=O)c1 [Example 166, N4-(2-methyl-4-(8-methyl-6-(trifluoromethyl)pyrido[3,2-d]pyrimidin-2-yl)phenyl)pyridine-2,4-dicarboxamide]"
10,< 200 nM,"Cc1cc(-c2ncc3nc(C(F)(F)F)cc(C)c3n2)ccc1N(C)C(=O)c1cc(C(N)=O)nn1CCO [Example 200, 1-(2-hydroxyethyl)-N5-methyl-N5-(2-methyl-4-(8-methyl-6-(trifluoromethyl)pyrido[3,2-d]pyrimidin-2-yl)phenyl)-1H-pyrazole-3,5-dicarboxamide]"
11,< 200 nM,"Cc1cc(C(=O)Nc2ccc(-c3ncc4nc(OC(F)(F)F)cc(C)c4n3)cc2C)ccn1 [Example 160, 2-methyl-N-(2-methyl-4-(8-methyl-6-(trifluoromethoxy)pyrido[3,2-d]-pyrimidin-2-yl)phenyl)isonicotinamide]"
12,< 200 nM,"COc1cnccc1C(=O)N(C)c1ccc(-c2ncc3cc(C(F)(F)F)ccc3n2)cc1C [Example 145, 3-Methoxy-N-methyl-N-(2-methyl-4-(6-(trifluoromethyl)quinazolin-2-yl)phenyl)isonicotinamide]"
13,< 200 nM,"CNC(=O)c1cc(C(=O)Nc2ccc(-c3ncc4nc(C(F)(F)F)cc(C)c4n3)cc2C)ccn1 [Example 167, N2-methyl-N4-(2-methyl-4-(8-methyl-6-(trifluoromethyl)pyrido[3,2-d]pyrimidin-2-yl)phenyl)pyridine-2,4-dicarboxamide]"
14,200 to 500 nM,"Cc1cc(-c2ccc3ccc(C(F)(F)F)cc3n2)ccc1NC(=O)c1ccnn1C [Example 078, 1-methyl-N-(2-methyl-4-(7-(trifluoromethyl)quinolin-2-yl)phenyl)-1H-pyrazole-5-carboxamide]"
15,< 200 nM,"Cc1cc(-c2ccc3cc(C(F)(F)F)ccc3n2)ccc1N(C)C(=O)c1ccnn1CCO [Example 209, 1-(2-hydroxyethyl)-N-methyl-N-(2-methyl-4-(6-(trifluoromethyl)quinolin-2-yl)phenyl)-1H-pyrazole-5-carboxamide]"
16,200 to 500 nM,"Cc1cc(-c2ccc3cc(F)cc(Cl)c3n2)ccc1NC(=O)c1ccnn1C [Example 049, N-(4-(8-chloro-6-fluoroquinolin-2-yl)-2-methylphenyl)-1-methyl-1H-pyrazole-5-carboxamide]"
17,< 200 nM,"Cc1cc(-c2ncc3cc(C(F)(F)F)ccc3n2)ccc1NC(=O)c1cn(C)nc1C [Example 219, 1,3-dimethyl-N-(2-methyl-4-(6-(trifluoromethyl)quinazolin-2-yl)phenyl)-1H-pyrazole-4-carboxamide]"
